Experimental data: PMC6576746, “Rational discovery of dual-indication multi-target PDE/Kinase inhibitor for precision anti-cancer therapy using structural systems pharmacology” (PLoS Computational Biology, 2019)

Experiments:
Assay in all cases: cells
Design in all cases: species or system panel of human cancer cell lines; Eurofins OncoPanel proliferation; nuclei count by high-content fluorescence imaging, 10-point dose response
5637 = conditions: 72 h, cell count, 3 days
Outline: (§1)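 Cells in RPMI 1640/10% FBS or special medium received compound the day after seeding, with a time-zero plate; 3-day incubation at 37°C, 5% CO2. Nuclei imaged by fluorescence microscopy; 10 half-log doses from 100 μM, 0.1% DMSO. EC50, IC50, GI50 and activity area (0–10) from curve fits.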

A-673 = conditions: Homo sapiens, A673, 72 h, cell count, 3 days
Outline: as §1

BFTC-905 = conditions: Homo sapiens, BFTC-905, 72 h, cell count, 3 days
Outline: as §1

DMS114 = conditions: Homo sapiens, DMS-114, 72 h, cell count, 3 days
Outline: as §1

IM-9 = conditions: Homo sapiens, IM-9, 72 h, cell count, 3 days
Outline: as §1

LS513 = conditions: Homo sapiens, LS-513, 72 h, cell count, 3 days
Outline: as §1

MC116 = conditions: Homo sapiens, MC116, 72 h, cell count, 3 days
Outline: as §1

MG-63 = conditions: Homo sapiens, MG-63, 72 h, cell count, 3 days
Outline: as §1

PSN-1 = conditions: Homo sapiens, PSN1, 72 h, cell count, 3 days
Outline: as §1

SCaBER = conditions: Homo sapiens, SCaBER, 72 h, cell count, 3 days
Outline: as §1

SNB-19 = conditions: Homo sapiens, SNB-19, 72 h, cell count, 3 days
Outline: as §1

SW480 = conditions: Homo sapiens, SW480, 72 h, cell count, 3 days
Outline: as §1

SW982 = conditions: Homo sapiens, SW982, 72 h, cell count, 3 days
Outline: as §1

T24 = conditions: Homo sapiens, T-24, 72 h, cell count, 3 days
Outline: as §1

[1] = 50% of maximum possible response

IC50 (SW480; [1]): 15.3 µM
GI50 (SW480; corrected for time zero): 10.8 µM
EC50 (SW480; curve inflection point): 13.1 µM
IC50 (SW982; [1]): 43.7 µM
GI50 (SW982; corrected for time zero): 31.3 µM
EC50 (SW982; curve inflection point): 43.7 µM
IC50 (T24; [1]): 6.95 µM
GI50 (T24; corrected for time zero): 6.6 µM
EC50 (T24; curve inflection point): 6.27 µM
Compound: C[C@@H]1CC(=O)NN=C1c1ccc(NN=C(C#N)C#N)cc1 [levosimendan]
IC50 5637; [1]: 64.7 µM
GI50 (5637; corrected for time zero): 53.5 µM
EC50 (5637; curve inflection point): 64.7 µM
IC50 (A-673; [1]): 57.6 µM
GI50 (A-673; corrected for time zero): 44 µM
EC50 (A-673; curve inflection point): 57.6 µM
IC50 (BFTC-905; [1]): 13.4 µM
GI50 (BFTC-905; corrected for time zero): 12.4 µM
EC50 (BFTC-905; curve inflection point): 13.4 µM
IC50 (DMS114; [1]): 50.7 µM
GI50 (DMS114; corrected for time zero): 18.9 µM
EC50 (DMS114; curve inflection point): 50.7 µM
IC50 (IM-9; [1]): 41 µM
GI50 (IM-9; corrected for time zero): 35.5 µM
EC50 (IM-9; curve inflection point): 41 µM
IC50 (LS513; [1]): 17.2 µM
GI50 (LS513; corrected for time zero): 14.7 µM
EC50 (LS513; curve inflection point): 17.2 µM
IC50 (MC116; [1]): 14.9 µM
GI50 (MC116; corrected for time zero): 13.8 µM
EC50 (MC116; curve inflection point): 14.7 µM
IC50 (MG-63; [1]): 19.5 µM
GI50 (MG-63; corrected for time zero): 14.2 µM
EC50 (MG-63; curve inflection point): 16.9 µM
IC50 (PSN-1; [1]): 12.8 µM
GI50 (PSN-1; corrected for time zero): 11.6 µM
EC50 (PSN-1; curve inflection point): 11.8 µM
IC50 (SCaBER; [1]): 60.4 µM
GI50 (SCaBER; corrected for time zero): 56.5 µM
EC50 (SCaBER; curve inflection point): 60.4 µM
IC50 (SNB-19; [1]): > 100 µM
GI50 (SNB-19; corrected for time zero): > 100 µM
EC50 (SNB-19; curve inflection point): > 100 µM
